The values that follow come from publication PMC12120022, “Discovery and chemical optimisation of a potent, Bi-cyclic antimicrobial inhibitor of Escherichia coli PBP3” (Communications Biology, 2025).

By Kd is commonly meant the equilibrium constant for the complex coming apart.

The target of this assay is T1, EcPBP3 (Escherichia coli, UniProt P0AD68).
T1 construct: For assays, selections and SPR a construct with residues 60–588 which has the N-terminal domain, but not the transmembrane helix, was used; made in house
The assay is described as follows: SPR binding assay on immobilised EcPBP3. Conditions: for Kd: 37 °C, kinetic fitting, NB = no binding at 2500 nM (Tables S-4, S-5) or 5000 nM (Table 1), read-out: Kd (nM) by SPR (geomean). As to the method: Surface plasmon resonance (SPR) assays were performed using EcPBP3 immobilized on CM5 sensor chips (GE Healthcare) via amine-coupling chemistry in assay buffer (10 mM HEPES pH 8.0, 200 mM NaCl, 0.05% (v/v) surfactant P20). The chip surface was activated by injection (10 μL min^–1) of 0.4 M EDC and 0.1 M NHS (in a 1:1 ratio) with a 7 min contact time. Protein was diluted to 25 μg mL^–1 in 10 mM MOPS (pH 7.0) and injected over the activated sensor chip surface to reach immobilization of 1500-2500 response units. Excess hydroxysuccinimidyl groups on the chip surface were deactivated by injection (10 μL min^–1) of 1 M ethanolamine hydrochloride pH 8.0 with a 7 min contact time. Reference flow cells were prepared as described, but without ligand (EcPBP3 protein).
Binding analysis runs were performed at 37 °C in running buffer (10 mM HEPES pH 8.0, 200 mM NaCl, 0.05% (w/v) Tween-20, 2% (v/v) DMSO). Test compounds (and control runs of buffer only) were injected in running buffer over the EcPBP3 chip and reference flow cell, at flow rate of 50 μL min^–1 for 150 s contact time and 2400 s dissociation time. Each injection was followed by a wash with 50% (v/v) DMSO. All compounds were tested in at least two independent biological replicates unless otherwise stated.
Raw sensorgrams data were solvent-corrected, reference-subtracted and blank-buffer-subtracted (double-referencing) before kinetic and affinity analysis to account for non-specific binding and injection artifacts. Equilibrium dissociation constant (Kd) values was determined using the Biacore™ Insight Evaluation Software (version 4.0.8 or version 5.0.17) using kinetic fitting. Kd values presented are the geometric mean of at least two biological replicates.
In general terms: SPR reads the build-up and loss of mass on a sensor chip optically.

Where a SMILES comes first, the peptide text is derived from it. Bounds are passed on as bounds.

T1 sequence (P0AD68 60-588): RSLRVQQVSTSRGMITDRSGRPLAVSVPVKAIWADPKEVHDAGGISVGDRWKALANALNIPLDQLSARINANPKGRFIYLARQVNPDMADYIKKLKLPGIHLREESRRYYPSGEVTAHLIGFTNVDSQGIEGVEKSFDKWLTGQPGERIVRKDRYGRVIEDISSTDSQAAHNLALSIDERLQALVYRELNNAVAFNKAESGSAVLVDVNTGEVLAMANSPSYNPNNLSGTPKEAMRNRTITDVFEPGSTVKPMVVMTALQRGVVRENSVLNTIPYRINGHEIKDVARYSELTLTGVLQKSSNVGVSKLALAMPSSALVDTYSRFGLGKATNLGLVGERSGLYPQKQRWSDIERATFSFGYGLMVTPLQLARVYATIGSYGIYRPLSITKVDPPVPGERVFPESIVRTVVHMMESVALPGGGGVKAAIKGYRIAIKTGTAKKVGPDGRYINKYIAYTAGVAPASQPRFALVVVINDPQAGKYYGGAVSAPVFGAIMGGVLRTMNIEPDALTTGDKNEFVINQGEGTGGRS

Take `CC(C)[C@@H]1NC(=O)[C@H](Cc2c[nH]c3ccccc23)NC(=O)[C@@H]2CCCN2C(=O)[C@@H]2CSCCC(=O)N3CN(CN(C3)C(=O)CCSC[C@H](NC(=O)[C@H](C)N)C(=O)N[C@@H](CO)C(=O)N[C@@H](Cc3c(F)c(F)c(F)c(F)c3F)C(=O)N3CCC[C@H]3C(=O)N[C@@H](CCCCN)C(=O)N2)C(=O)CCSC[C@@H](C(=O)N[C@@H](C)C(N)=O)NC(=O)CNC(=O)[C@H](CCC(=O)O)NC1=O` [Peptide 54]: the Kd worked out at 701 nM.

Regarding `CC(C)[C@@H]1NC(=O)[C@H](Cc2cnc3ccccc3c2)NC(=O)[C@@H]2CCCN2C(=O)[C@@H]2CSCCC(=O)N3CN(CN(C3)C(=O)CCSC[C@H](NC(=O)[C@H](C)N)C(=O)N[C@@H](CO)C(=O)N[C@@H](Cc3ccccc3)C(=O)N3CCC[C@H]3C(=O)N[C@@H](CCCCN)C(=O)N2)C(=O)CCSC[C@@H](C(=O)N[C@@H](C)C(N)=O)NC(=O)CNC(=O)[C@H](CCC(=O)O)NC1=O` [Peptide 62], the Kd came to 27 nM. Same read-out and setting: the result for `CC(C)[C@@H]1NC(=O)[C@H](Cc2c[nH]c3ccccc23)NC(=O)[C@H](C)NC(=O)[C@@H]2CSCCC(=O)N3CN(CN(C3)C(=O)CCSC[C@H](NC(=O)[C@H](C)N)C(=O)N[C@@H](CO)C(=O)N[C@@H](Cc3ccccc3)C(=O)N3CCC[C@H]3C(=O)N[C@@H](CCCCN)C(=O)N2)C(=O)CCSC[C@@H](C(=O)N[C@@H](C)C(N)=O)NC(=O)CNC(=O)[C@H](CCC(=O)O)NC1=O` [Peptide 20] reads 1380 nM; that for `CC(C)[C@@H]1NC(=O)[C@H](Cc2c[nH]c3ccccc23)NC(=O)[C@@H]2CCCN2C(=O)[C@@H]2CSCCC(=O)N3CN(CN(C3)C(=O)CCSC[C@H](NC(=O)[C@H](C)N)C(=O)N[C@@H](CO)C(=O)N[C@@H](C)C(=O)N3CCC[C@H]3C(=O)N[C@@H](CCCCN)C(=O)N2)C(=O)CCSC[C@@H](C(=O)N[C@@H](C)C(N)=O)NC(=O)CNC(=O)[C@H](CCC(=O)O)NC1=O` [Peptide 17], > 2500 nM; that for `Cc1ccccc1C[C@@H]1NC(=O)[C@H](CO)NC(=O)[C@@H](NC(=O)[C@H](C)N)CSCCC(=O)N2CN3CN(C2)C(=O)CCSC[C@H](NC(=O)[C@H](CCCCN)NC(=O)[C@@H]2CCCN2C1=O)C(=O)N1CCC[C@H]1C(=O)N[C@@H](Cc1c[nH]c2ccccc12)C(=O)N[C@@H](C(C)C)C(=O)N[C@@H](CCC(=O)O)C(=O)NCC(=O)N[C@H](C(=O)N[C@@H](C)C(N)=O)CSCCC3=O` [Peptide 57], 22.3 nM. As to `CC(C)[C@@H]1NC(=O)[C@H](Cc2c[nH]c3ccccc23)NC(=O)[C@@H]2CCCN2C(=O)[C@@H]2CSCCC(=O)N3CN(CN(C3)C(=O)CCSC[C@H](NC(=O)[C@H](C)N)C(=O)N[C@@H](CO)C(=O)N[C@@H](CCc3ccccc3)C(=O)N3CCC[C@H]3C(=O)N[C@@H](CCCCN)C(=O)N2)C(=O)CCSC[C@@H](C(=O)N[C@@H](C)C(N)=O)NC(=O)CNC(=O)[C@H](CCC(=O)O)NC1=O` [Peptide 61], the Kd came to 232 nM. Consider `CC(C)[C@@H]1NC(=O)[C@H](Cc2c[nH]c3cc(F)ccc23)NC(=O)[C@@H]2CCCN2C(=O)[C@@H]2CSCCC(=O)N3CN(CN(C3)C(=O)CCSC[C@H](NC(=O)[C@H](C)N)C(=O)N[C@@H](CO)C(=O)N[C@@H](Cc3ccccc3)C(=O)N3CCC[C@H]3C(=O)N[C@@H](CCCCN)C(=O)N2)C(=O)CCSC[C@@H](C(=O)N[C@@H](C)C(N)=O)NC(=O)CNC(=O)[C@H](CCC(=O)O)NC1=O` [Peptide 66], for which the Kd was 0.489 nM. The “Improvement in binding affinity” value (hydrophobic extension of Trp6, relative to parent peptide) is listed as “More than 10 fold”.

In the case of `Cc1ccc(C[C@@H]2NC(=O)[C@H](CO)NC(=O)[C@@H](NC(=O)[C@H](C)N)CSCCC(=O)N3CN4CN(C3)C(=O)CCSC[C@H](NC(=O)[C@H](CCCCN)NC(=O)[C@@H]3CCCN3C2=O)C(=O)N2CCC[C@H]2C(=O)N[C@@H](Cc2c[nH]c3ccccc23)C(=O)N[C@@H](C(C)C)C(=O)N[C@@H](CCC(=O)O)C(=O)NCC(=O)N[C@H](C(=O)N[C@@H](C)C(N)=O)CSCCC4=O)cc1` [Peptide 58], the Kd is 5.06 nM.

With `CC(C)[C@@H]1NC(=O)[C@H](Cc2c[nH]c3ccccc23)NC(=O)[C@@H]2CCCN2C(=O)[C@@H]2CSCCC(=O)N3CN(CN(C3)C(=O)CCSC[C@H](NC(=O)[C@H](C)N)C(=O)N[C@@H](CO)C(=O)N[C@@H](Cc3ccccc3F)C(=O)N3CCC[C@H]3C(=O)N[C@@H](CCCCN)C(=O)N2)C(=O)CCSC[C@@H](C(=O)N[C@@H](C)C(N)=O)NC(=O)CNC(=O)[C@H](CCC(=O)O)NC1=O` [Peptide 56], the Kd is 56.6 nM. Take `C[C@H](N)C(=O)N[C@H]1CSCCC(=O)N2CN3CN(C2)C(=O)CCSC[C@H](NC(=O)[C@H](CCCCN)NC(=O)[C@@H]2CCCN2C(=O)[C@H](Cc2ccccc2)NC(=O)[C@H](CO)NC1=O)C(=O)N1CCC[C@H]1C(=O)N[C@@H](Cc1c[nH]c2ccccc12)C(=O)N[C@@H](C1CCC1)C(=O)N[C@@H](CCC(=O)O)C(=O)NCC(=O)N[C@H](C(=O)N[C@@H](C)C(N)=O)CSCCC3=O` [Peptide 68] (HELM PEPTIDE1{A.C.S.F.P.K.C.P.W.[O=C([C@@H](N[*:1])C1CCC1)[*:2]].E.G.C.A.[am]}|CHEM1{[O=C(CC[*:1])N1CN(C(=O)CC[*:2])CN(C(=O)CC[*:3])C1]}$PEPTIDE1,CHEM1,2:R3-1:R1|PEPTIDE1,CHEM1,7:R3-1:R2|PEPTIDE1,CHEM1,13:R3-1:R3$$$V2.0): the Kd worked out at 187 nM.

For the molecule `C[C@H](N)C(=O)N[C@H]1CSCCC(=O)N2CN3CN(C2)C(=O)CCSC[C@H](NC(=O)[C@H](CCCCN)NC(=O)[C@@H]2CCCN2C(=O)[C@H](Cc2ccccc2)NC(=O)[C@H](CO)NC1=O)C(=O)N1CCC[C@H]1C(=O)N[C@@H](Cc1c[nH]c2ccccc12)C(=O)N[C@@H](C(C)(C)C)C(=O)N[C@@H](CCC(=O)O)C(=O)NCC(=O)N[C@H](C(=O)N[C@@H](C)C(N)=O)CSCCC3=O` [Peptide 67] (HELM PEPTIDE1{A.C.S.F.P.K.C.P.W.[CC(C)(C)[C@H](N[*:1])C(=O)[*:2]].E.G.C.A.[am]}|CHEM1{[O=C(CC[*:1])N1CN(C(=O)CC[*:2])CN(C(=O)CC[*:3])C1]}$PEPTIDE1,CHEM1,2:R3-1:R1|PEPTIDE1,CHEM1,7:R3-1:R2|PEPTIDE1,CHEM1,13:R3-1:R3$$$V2.0), the Kd was 574 nM. Regarding `CC(C)[C@@H]1NC(=O)[C@H](Cc2c[nH]c3ccccc23)NC(=O)[C@@H]2CCCN2C(=O)[C@@H]2CSCCC(=O)N3CN(CN(C3)C(=O)CCSC[C@H](NC(=O)[C@H](C)N)C(=O)N[C@@H](CO)C(=O)N[C@@H](Cc3cccc(F)c3)C(=O)N3CCC[C@H]3C(=O)N[C@@H](CCCCN)C(=O)N2)C(=O)CCSC[C@@H](C(=O)N[C@@H](C)C(N)=O)NC(=O)CNC(=O)[C@H](CCC(=O)O)NC1=O` [Peptide 55], the Kd was found to be 16.8 nM. As for `CC(C)[C@@H]1NC(=O)[C@H](Cc2c[nH]c3ccccc23)NC(=O)[C@@H]2CCCN2C(=O)[C@@H]2CSCCC(=O)N3CN(CN(C3)C(=O)CCSC[C@H](NC(=O)[C@H](C)N)C(=O)N[C@@H](CO)C(=O)N[C@@H](Cc3ccncc3)C(=O)N3CCC[C@H]3C(=O)N[C@@H](CCCCN)C(=O)N2)C(=O)CCSC[C@@H](C(=O)N[C@@H](C)C(N)=O)NC(=O)CNC(=O)[C@H](CCC(=O)O)NC1=O` [Peptide 59] (HELM PEPTIDE1{A.C.S.[O=C([C@H](Cc1ccncc1)N[*:1])[*:2]].P.K.C.P.W.V.E.G.C.A.[am]}|CHEM1{[O=C(CC[*:1])N1CN(C(=O)CC[*:2])CN(C(=O)CC[*:3])C1]}$PEPTIDE1,CHEM1,2:R3-1:R1|PEPTIDE1,CHEM1,7:R3-1:R2|PEPTIDE1,CHEM1,13:R3-1:R3$$$V2.0), the Kd is 121 nM. Consider `CC(C)[C@@H]1NC(=O)[C@H](Cc2c[nH]c3ccccc23)NC(=O)[C@@H]2CCCN2C(=O)[C@@H]2CSCCC(=O)N3CN(CN(C3)C(=O)CCSC[C@H](NC(=O)[C@H](C)N)C(=O)N[C@@H](CO)C(=O)N[C@@H](Cc3ccccn3)C(=O)N3CCC[C@H]3C(=O)N[C@@H](CCCCN)C(=O)N2)C(=O)CCSC[C@@H](C(=O)N[C@@H](C)C(N)=O)NC(=O)CNC(=O)[C@H](CCC(=O)O)NC1=O` [Peptide 60] (HELM PEPTIDE1{A.C.S.[O=C([C@H](Cc1ccccn1)N[*:1])[*:2]].P.K.C.P.W.V.E.G.C.A.[am]}|CHEM1{[O=C(CC[*:1])N1CN(C(=O)CC[*:2])CN(C(=O)CC[*:3])C1]}$PEPTIDE1,CHEM1,2:R3-1:R1|PEPTIDE1,CHEM1,7:R3-1:R2|PEPTIDE1,CHEM1,13:R3-1:R3$$$V2.0), for which the Kd amounted to 122 nM. Still for that read-out and setting: as for `COc1ccc2[nH]cc(C[C@@H]3NC(=O)[C@@H]4CCCN4C(=O)[C@@H]4CSCCC(=O)N5CN(CN(C5)C(=O)CCSC[C@H](NC(=O)[C@H](C)N)C(=O)N[C@@H](CO)C(=O)N[C@@H](Cc5ccccc5)C(=O)N5CCC[C@H]5C(=O)N[C@@H](CCCCN)C(=O)N4)C(=O)CCSC[C@@H](C(=O)N[C@@H](C)C(N)=O)NC(=O)CNC(=O)[C@H](CCC(=O)O)NC(=O)[C@H](C(C)C)NC3=O)c2c1` [Peptide 63], the figure is 175 nM.
